Measurements as given in US11826373B2, “Methods for treatment of diseases” (Galera Labs, LLC, priority 2011, dated 2023).
Read-outs that look alike come from different tables or passages of the source.

How the values were obtained:
Solubility (Table 1) = assay type: physicochemical
[1] = Catalytic rate constant for the dismutation of superoxide; assay type: biochemical; conditions: pH = 7.4
[2] = Kinetic stability (dissociation of Mn(II) from ligand); assay type: physicochemical; conditions: second-order rate constant for dissociation of Mn(II) from the ligand, in water
HEK-293 cells = experiment: Anti-proliferative activity in vitro; assay type: cell-based; conditions: 72 hour incubation, LDH assay
Method: Materials and Methods: HEK-293 (CRL-1573) cells were obtained from ATCC and cultured according to ATCC instructions. Complete growth medium consisted of RPMI 1640 supplemented to 10% with fetal bovine serum (FBS). All cell incubations were at 37° C. in 95% air: 5% CO2. Two days before the start of a proliferation experiment, 10^3 HEK-293 cells in exponential growth phase were plated into each well of a 96-well plate. To synchronize cell division, the cells were maintained in complete growth medium for 24 hours at which time the cell monolayers were rinsed once with growth medium without FBS and then incubated overnight in media without FBS. The next morning GC4419 or GC4403 in complete growth medium or complete growth medium alone was added. The plates were incubated for 72 hour, after which time cell numbers were determined using an LDH assay kit. “Cell number” on FIG. 3 represents absorbance at 490 nm.

[3] = GC4403 28-day IV toxicity in dog; assay type: in vivo; conditions: both sexes, dog, in vivo; beagle dogs, IV, 28 consecutive days; read-out: no observed adverse effect level (NOAEL)
Method: (§1) GC4403 was evaluated in a Good Laboratory Practice (GLP)-regulated study in beagle dogs. GC4403 was administered intravenously (IV) via slow bolus dose, once daily, to beagle dogs for 28 consecutive days. GC4403 was administered IV into the cephalic vein (0.5 mL/kg) to 3 groups of dogs (4 animals/sex/group) at dosages of 1.0, 3.0 and 6.0 mg/kg with a fourth group receiving vehicle (26 mM sodium bicarbonate in normal saline). […] There were no test article-related differences in group mean hematology, coagulation, or clinical chemistry parameters or urinalysis parameters after 28 days of treatment in any dosing group. At necropsy on day 29, there were neither test-article related gross macroscopic findings nor test-article-related differences in organ weight. No test-article-related histopathological lesions were present. There were no test-article-related electrocardiology (ECG) effects when evaluated on day 27.

beagle dogs = experiment: GC4403 28-day IV toxicity in dog; assay type: in vivo; conditions: 28 days
Method: as §1

SD rats = experiment: Rat GC4403 7-day intravenous toxicity; assay type: in vivo
Method: GC4403 was Studied in a GLP toxicology study in which it was administered in 26 mM sodium bicarbonate/0.9% sodium chloride to SD rats (10/sex/group) IV (slow bolus 1 mL/kg/minute) at dosages of 0, 1, 3 or 10 mg/kg/day for 7 days (On Day 1, 1/10 male rats receiving 10 mg/kg/day died). The dosage was therefore decreased to 8 mg/kg/day on Day 2 for all surviving animals for the remainder of the study, and the original 10 mg/kg/day group was re-designated as the 8 mg/kg/day group. On Day 4, two females from the 8 mg/kg/day group also died. Clinical signs immediately following dose administration of 8 mg/kg/day were twitching, labored breathing, body drop and prostration. At the scheduled 1-hour observation time, animals appeared normal. Males and females given 8 mg/kg/day had decreased body weight gains, which were accompanied by decreased food consumption in the males only. […] Surviving rats were sacrificed, and all rats sacrificed or found dead were necropsied.

TNF-α = experiment: Plasma TNF-α in the collagen induced arthritis model; assay type: in vivo, Male Lewis rats
Method: Male Lewis rats (160-180 g) were used for this study. Collagen induced arthritis (CIA) was induced as follows: Bovine type II collagen (CII; Sigma) was dissolved in 0.1 M acetic acid at 2 mg/mL by stirring overnight at 4 C. Rats were immunized with an emulsion of 2 mg/mL CII in incomplete Freund's adjuvant (IFA; Sigma). The emulsion was prepared by homogenizing one part CII into one part IFA at 4 C. On day 1, rats were injected intradermally at the base of the tail with 100 μL of the emulsion. On day 21, a second injection of CII in IFA was administered at the base of the tail. GC4403 and GC4419 were prepared fresh, dissolved in 26 mM sodium bicarbonate buffered saline (Vehicle). All drugs were given by intraperitoneal injection at 1 mL/kg. Animals were randomly divided into groups (n=10 per group). GC4403 and GC4419 were administered once daily at 2, 5 and 10 mg/kg from days 25 through 35.
TNF-α levels were measured from plasma on day 35. The assay was conducted using a colorimetric ELISA kit (Calbiochem-Novabiochem) having a detection limit of 5 pg/mL. Values were expressed as mean±standard error of the mean of 10 observations. Data sets were examined by one-way ANOVA followed by a Bonferroni post-hoc test for multiple comparisons. A p-value of less than 0.05 was considered significant.

[4] = 26 mM bicarbonate buffered saline, aqueous buffer, at 25° C., pH 8.3, read-out: Solubility in 26 mM bicarbonate buffered saline
[5] = 2 mg/kg ip once daily days 25 through 35, measured day 35
[6] = 5 mg/kg ip once daily days 25 through 35, measured day 35
[7] = 10 mg/kg ip once daily days 25 through 35, measured day 35

## [Cl][Mn-5]1234([Cl])[n+]5c6cccc5C[NH+]1[C@@H]1CCCC[C@H]1[NH+]2CC[NH+]3[C@@H]1CCCC[C@H]1[NH+]4C6 (stereo partly shown) [GC4403]
Solubility (Table 1); [4]
  solubility: 20 mg/mL
Solubility (Table 1); distilled water, water
  solubility: 30 mg/mL
[1]
  Catalytic rate constant for the dismutation for superoxide (kcat): kcat = 1.2 × 10^+7 M^−1 sec^−1
[2]
  Kinetic Stability (kdiss): kdiss = 0.135 M^−1 s^−1
HEK-293 cells
  proliferation of HEK-293 cells: equivalent dose-dependent decrease
[3]
  NOAEL at 28 days: 1 mg/kg/day
Beagle dogs; beagle dogs, 1.0, 3.0 and 6.0 mg/kg IV
  mortality: No animals died
Beagle dogs; both, beagle, dog, in vivo, iv
  no observed toxic effect level (NOTEL): 3.0 mg/kg/day
SD rats; 8 mg/kg/day group, Day 4
  mortality, females died: two
SD rats; 10 mg/kg/day, Day 1
  mortality, male rats died: 1/10
SD rats; rat, IV slow bolus injection, 7 days
  no observed toxic event level (NOTEL): 3 mg/kg/day
TNF-α; [5]
  plasma TNF-α production: did not significantly reduce
TNF-α; [6]
  plasma TNF-α production: significantly reduced
TNF-α; [7]
  plasma TNF-α production: significantly reduced

## [Cl][Mn-5]1234([Cl])[n+]5c6cccc5C[NH+]1[C@H]1CCCC[C@@H]1[NH+]2CC[NH+]3[C@H]1CCCC[C@@H]1[NH+]4C6 (stereo partly shown) [GC4419]
Solubility (Table 1); [4]
  solubility: 20 mg/mL
Solubility (Table 1); distilled water, water
  solubility: 30 mg/mL
[1]
  Catalytic rate constant for the dismutation for superoxide (kcat): kcat = 1.2 × 10^+7 M^−1 sec^−1
[2]
  Kinetic Stability (kdiss): kdiss = 0.135 M^−1 s^−1
HEK-293 cells
  proliferation of HEK-293 cells: equivalent dose-dependent decrease
TNF-α; [5]
  plasma TNF-α production: did not significantly reduce
TNF-α; [6]
  plasma TNF-α production: significantly reduced
TNF-α; [7]
  plasma TNF-α production: significantly reduced
